Data on 9 compounds can be found in ChEMBL document CHEMBL1146140 (Bioorg Med Chem Lett, 2006).

Structures are written as SMILES.

In assay [1] the target is T1, 1-deoxy-D-xylulose 5-phosphate reductoisomerase (Escherichia coli K-12, UniProt P45568).
T1 sequence (P45568 whole entry): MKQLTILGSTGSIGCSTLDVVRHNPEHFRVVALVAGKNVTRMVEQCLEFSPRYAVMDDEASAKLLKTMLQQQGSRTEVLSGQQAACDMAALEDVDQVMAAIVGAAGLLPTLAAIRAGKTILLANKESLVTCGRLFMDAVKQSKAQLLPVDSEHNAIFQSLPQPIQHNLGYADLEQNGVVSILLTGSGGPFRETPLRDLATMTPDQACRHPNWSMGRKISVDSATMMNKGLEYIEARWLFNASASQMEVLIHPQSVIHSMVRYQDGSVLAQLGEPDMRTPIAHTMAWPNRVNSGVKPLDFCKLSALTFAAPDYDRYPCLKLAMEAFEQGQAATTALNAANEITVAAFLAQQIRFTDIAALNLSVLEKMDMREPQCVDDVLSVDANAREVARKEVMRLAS
Description: Inhibition of recombinant Escherichia coli DXR.

The subject of assay [2] is Plasmodium falciparum. Description: Antimalarial activity against Plasmodium falciparum 3D7. The class given is functional, organism-based.
Assay [3] deals with Plasmodium falciparum. Kind of assay: Antimalarial activity against Plasmodium falciparum Dd2. Format: functional, organism-based.

Consider `O=CN(O)CCC(c1ccc(Cl)c(Cl)c1)P(=O)(O)O` (stereo not given), for which the values for the IC50 (in assay [1]; in the assay on Plasmodium falciparum [2]; in the assay with Plasmodium falciparum [3]) were 59 nM, 90 nM and 28 nM, respectively.

As to `O=CN(O)CCCP(=O)(O)O` [FOSMIDOMYCIN], the results for the IC50 in the assay on Plasmodium falciparum [2] and in the assay with Plasmodium falciparum [3] were 1100 nM and 360 nM, respectively.

Regarding `CC(=O)N(O)CCC(c1ccc(Cl)cc1)P(=O)(O)O` (stereo not given), the IC50 stood at 99 nM in assay [1], 350 nM with Plasmodium falciparum [2] and 95 nM in the assay on Plasmodium falciparum [3].

Turning to `CC(=O)N(O)CCC(c1ccc(C)cc1)P(=O)(O)O` (stereo not given), the IC50 in assay [1] is 396 nM; with Plasmodium falciparum [2], 950 nM; in the assay with Plasmodium falciparum [3], 220 nM.

Take `COc1ccc(C(CCN(O)C=O)P(=O)(O)O)cc1` (stereo not given): the IC50 came to 156 nM in assay [1], 360 nM in the assay with Plasmodium falciparum [2] and 200 nM in the assay with Plasmodium falciparum [3].

Turning to `CC(=O)N(O)CCC(c1ccc(Cl)c(Cl)c1)P(=O)(O)O` (stereo not given), the IC50 was 119 nM in assay [1], 250 nM in the assay on Plasmodium falciparum [2] and 90 nM in the assay on Plasmodium falciparum [3].

As for `CC(=O)N(O)CCC(c1ccccc1)P(=O)(O)O` (stereo not given), the IC50 with Plasmodium falciparum [2] worked out at 550 nM; with Plasmodium falciparum [3], 350 nM.

On to `COc1ccc(C(CCN(O)C(C)=O)P(=O)(O)O)cc1` (stereo not given), for which the results for the IC50 (in assay [1]; with Plasmodium falciparum [2]; in the assay with Plasmodium falciparum [3]) were 459 nM, 850 nM and 270 nM, respectively.

With `CC(=O)N(O)CCCP(=O)(O)O` [FR-900098], the IC50 in assay [1] turned out to be 30 nM; in the assay on Plasmodium falciparum [2], 320 nM; in the assay on Plasmodium falciparum [3], 180 nM.
